Blank lines part the entries; values can stand above or below the molecule they belong to.
Legend:
[1] = target: T1, Gamma-aminobutyric acid receptor subunit alpha-1/alpha-2/beta-2/gamma-2 (Homo sapiens, UniProt P14867+P18507+P47869+P47870); type: protein-complex assay
[2] = target: T1, Gamma-aminobutyric acid receptor subunit alpha-1/alpha-2/beta-2/gamma-2; type: functional, cell-based
Mu-type opioid receptor = Mu-type opioid receptor (Homo sapiens, UniProt P35372); experiment: biochemical; type: functional
Mu-type opioid receptor, sequence (P35372 whole entry): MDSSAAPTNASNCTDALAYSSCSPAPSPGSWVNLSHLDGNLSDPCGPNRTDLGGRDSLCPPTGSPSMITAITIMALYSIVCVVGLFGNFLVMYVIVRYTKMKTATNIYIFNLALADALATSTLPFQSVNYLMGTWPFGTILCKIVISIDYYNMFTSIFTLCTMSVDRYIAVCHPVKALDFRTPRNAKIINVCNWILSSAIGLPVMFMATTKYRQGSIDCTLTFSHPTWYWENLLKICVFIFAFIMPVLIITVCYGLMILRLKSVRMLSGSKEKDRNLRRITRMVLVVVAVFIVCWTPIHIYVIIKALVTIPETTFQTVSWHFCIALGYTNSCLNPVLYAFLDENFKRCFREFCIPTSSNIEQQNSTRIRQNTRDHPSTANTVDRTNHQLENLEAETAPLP

[3] = target: T2, Muscarinic acetylcholine receptor M1 (Homo sapiens, UniProt P11229); type: functional
T2 sequence (P11229 whole entry): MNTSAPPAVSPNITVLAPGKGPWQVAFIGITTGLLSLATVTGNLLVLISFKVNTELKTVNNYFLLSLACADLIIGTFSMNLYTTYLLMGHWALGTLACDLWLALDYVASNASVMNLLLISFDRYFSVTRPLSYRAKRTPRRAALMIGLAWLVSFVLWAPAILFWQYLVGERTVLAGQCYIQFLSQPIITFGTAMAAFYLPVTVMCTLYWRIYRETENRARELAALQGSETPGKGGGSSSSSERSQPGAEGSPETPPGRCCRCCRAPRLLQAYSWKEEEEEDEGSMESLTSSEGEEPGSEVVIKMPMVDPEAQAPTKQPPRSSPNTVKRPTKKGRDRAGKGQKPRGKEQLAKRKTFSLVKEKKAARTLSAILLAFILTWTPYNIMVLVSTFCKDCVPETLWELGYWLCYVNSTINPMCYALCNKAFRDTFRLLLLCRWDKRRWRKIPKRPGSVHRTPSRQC

[4] = target: 5-hydroxytryptamine receptor 2A (Homo sapiens, UniProt P28223); type: functional, cell-based
5-hydroxytryptamine receptor 2A, sequence (P28223 whole entry): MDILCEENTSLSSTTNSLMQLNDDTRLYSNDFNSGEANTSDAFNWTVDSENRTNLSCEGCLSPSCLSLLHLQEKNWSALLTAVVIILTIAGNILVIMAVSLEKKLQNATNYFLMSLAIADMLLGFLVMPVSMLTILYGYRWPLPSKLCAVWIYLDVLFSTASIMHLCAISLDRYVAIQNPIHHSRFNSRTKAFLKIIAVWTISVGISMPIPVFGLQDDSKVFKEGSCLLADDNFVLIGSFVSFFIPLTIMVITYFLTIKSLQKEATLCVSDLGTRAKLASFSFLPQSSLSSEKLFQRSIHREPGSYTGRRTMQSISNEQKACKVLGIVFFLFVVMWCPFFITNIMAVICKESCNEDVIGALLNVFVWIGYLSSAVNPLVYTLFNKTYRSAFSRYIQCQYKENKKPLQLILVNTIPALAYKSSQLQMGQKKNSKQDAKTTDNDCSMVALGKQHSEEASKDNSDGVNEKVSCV

Estrogen receptor = target: T3, Estrogen receptor (Homo sapiens, UniProt P03372)
T3 sequence (P03372 whole entry): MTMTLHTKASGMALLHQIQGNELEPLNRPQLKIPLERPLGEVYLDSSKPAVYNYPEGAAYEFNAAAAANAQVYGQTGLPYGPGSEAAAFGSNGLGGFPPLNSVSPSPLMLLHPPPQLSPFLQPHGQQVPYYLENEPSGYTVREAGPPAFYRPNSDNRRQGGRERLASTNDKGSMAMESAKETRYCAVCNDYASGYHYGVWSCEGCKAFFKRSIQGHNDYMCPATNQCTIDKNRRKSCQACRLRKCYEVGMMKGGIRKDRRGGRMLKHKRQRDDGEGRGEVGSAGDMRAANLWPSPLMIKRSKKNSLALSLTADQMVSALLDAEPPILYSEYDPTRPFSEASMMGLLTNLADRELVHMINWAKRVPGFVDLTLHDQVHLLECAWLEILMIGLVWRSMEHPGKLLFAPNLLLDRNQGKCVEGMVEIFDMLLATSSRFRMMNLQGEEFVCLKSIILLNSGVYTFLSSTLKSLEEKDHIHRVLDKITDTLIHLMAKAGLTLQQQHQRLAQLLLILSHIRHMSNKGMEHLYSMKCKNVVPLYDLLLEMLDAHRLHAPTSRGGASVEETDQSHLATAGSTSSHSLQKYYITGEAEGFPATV

Cannabinoid receptor 1 = Cannabinoid receptor 1 (Homo sapiens, UniProt P21554)
Cannabinoid receptor 1, sequence (P21554 whole entry): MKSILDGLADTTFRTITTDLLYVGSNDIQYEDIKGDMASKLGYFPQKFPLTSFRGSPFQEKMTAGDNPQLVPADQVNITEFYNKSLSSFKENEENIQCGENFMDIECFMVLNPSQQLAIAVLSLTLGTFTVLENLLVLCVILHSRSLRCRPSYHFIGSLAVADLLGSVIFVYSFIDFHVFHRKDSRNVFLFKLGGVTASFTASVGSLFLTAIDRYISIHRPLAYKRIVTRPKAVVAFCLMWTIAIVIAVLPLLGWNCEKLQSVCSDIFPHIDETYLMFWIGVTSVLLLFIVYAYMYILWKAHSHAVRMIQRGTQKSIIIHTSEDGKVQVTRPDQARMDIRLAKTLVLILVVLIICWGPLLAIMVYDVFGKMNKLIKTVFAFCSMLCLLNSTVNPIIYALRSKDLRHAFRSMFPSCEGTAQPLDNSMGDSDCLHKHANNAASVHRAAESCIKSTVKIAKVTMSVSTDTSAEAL

Histamine H2 receptor = Histamine H2 receptor (Homo sapiens, UniProt P25021)
Histamine H2 receptor, sequence (P25021 whole entry): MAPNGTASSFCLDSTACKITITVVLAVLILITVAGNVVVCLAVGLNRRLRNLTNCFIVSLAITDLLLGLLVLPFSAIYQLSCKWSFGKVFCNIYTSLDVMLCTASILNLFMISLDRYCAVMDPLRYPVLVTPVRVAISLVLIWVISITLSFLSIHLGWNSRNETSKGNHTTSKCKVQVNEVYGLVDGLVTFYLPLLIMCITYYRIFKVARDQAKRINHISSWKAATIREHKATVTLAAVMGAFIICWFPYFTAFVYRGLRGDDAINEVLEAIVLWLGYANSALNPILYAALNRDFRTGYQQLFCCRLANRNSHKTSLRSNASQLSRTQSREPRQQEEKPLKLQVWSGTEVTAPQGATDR

B1 bradykinin receptor = target: T4, B1 bradykinin receptor (Homo sapiens, UniProt P46663)
T4 sequence (P46663 whole entry): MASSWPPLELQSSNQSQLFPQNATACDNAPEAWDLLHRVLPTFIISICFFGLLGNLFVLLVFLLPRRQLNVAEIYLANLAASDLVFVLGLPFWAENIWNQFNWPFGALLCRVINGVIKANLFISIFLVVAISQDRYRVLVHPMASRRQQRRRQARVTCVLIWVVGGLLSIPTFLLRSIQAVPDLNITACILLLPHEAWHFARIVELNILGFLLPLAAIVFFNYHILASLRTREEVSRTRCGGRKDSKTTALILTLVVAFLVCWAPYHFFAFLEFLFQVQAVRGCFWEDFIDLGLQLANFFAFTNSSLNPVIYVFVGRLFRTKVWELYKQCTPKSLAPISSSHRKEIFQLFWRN

[5] = target: T5, Corticotropin-releasing factor receptor 2 (Homo sapiens, UniProt Q13324)
T5 sequence (Q13324 whole entry): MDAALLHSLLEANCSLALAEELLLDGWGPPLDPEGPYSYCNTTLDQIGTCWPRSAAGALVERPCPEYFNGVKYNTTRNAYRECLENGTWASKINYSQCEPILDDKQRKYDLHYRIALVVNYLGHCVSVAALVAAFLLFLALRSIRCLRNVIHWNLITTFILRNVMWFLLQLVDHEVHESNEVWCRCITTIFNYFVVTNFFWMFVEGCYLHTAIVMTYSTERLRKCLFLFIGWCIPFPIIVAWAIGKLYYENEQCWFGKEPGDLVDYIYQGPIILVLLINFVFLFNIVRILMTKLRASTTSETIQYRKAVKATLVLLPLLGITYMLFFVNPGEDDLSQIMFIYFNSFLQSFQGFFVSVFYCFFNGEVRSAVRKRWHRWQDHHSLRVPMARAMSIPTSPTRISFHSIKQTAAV
Note: assay procedure not described here.

T1 sequence (P14867 whole entry): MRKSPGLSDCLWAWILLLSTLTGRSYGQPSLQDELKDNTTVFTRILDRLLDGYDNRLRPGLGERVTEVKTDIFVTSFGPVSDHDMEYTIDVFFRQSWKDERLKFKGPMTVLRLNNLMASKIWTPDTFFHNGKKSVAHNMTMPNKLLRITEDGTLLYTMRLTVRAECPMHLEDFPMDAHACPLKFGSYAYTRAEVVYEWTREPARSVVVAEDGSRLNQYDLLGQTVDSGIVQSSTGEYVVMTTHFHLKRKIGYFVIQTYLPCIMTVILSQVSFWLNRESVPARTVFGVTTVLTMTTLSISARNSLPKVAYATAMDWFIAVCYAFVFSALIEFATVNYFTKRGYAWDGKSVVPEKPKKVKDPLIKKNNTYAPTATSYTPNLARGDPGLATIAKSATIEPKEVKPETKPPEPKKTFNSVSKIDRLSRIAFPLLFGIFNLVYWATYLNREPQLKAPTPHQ
T1 sequence (P47870 whole entry): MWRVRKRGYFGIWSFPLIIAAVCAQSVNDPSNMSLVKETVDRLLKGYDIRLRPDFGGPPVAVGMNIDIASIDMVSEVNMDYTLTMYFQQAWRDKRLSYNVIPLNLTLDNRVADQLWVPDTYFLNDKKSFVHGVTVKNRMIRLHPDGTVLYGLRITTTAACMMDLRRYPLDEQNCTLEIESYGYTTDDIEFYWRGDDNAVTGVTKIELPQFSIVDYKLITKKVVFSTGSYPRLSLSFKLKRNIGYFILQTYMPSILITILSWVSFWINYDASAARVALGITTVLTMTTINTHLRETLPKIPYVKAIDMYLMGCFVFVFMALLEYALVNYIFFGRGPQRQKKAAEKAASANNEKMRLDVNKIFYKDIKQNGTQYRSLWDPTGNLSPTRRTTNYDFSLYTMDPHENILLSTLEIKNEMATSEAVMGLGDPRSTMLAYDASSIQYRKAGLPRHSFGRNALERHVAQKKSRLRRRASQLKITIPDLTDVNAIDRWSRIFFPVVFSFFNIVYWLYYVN
T1 sequence (P18507 whole entry): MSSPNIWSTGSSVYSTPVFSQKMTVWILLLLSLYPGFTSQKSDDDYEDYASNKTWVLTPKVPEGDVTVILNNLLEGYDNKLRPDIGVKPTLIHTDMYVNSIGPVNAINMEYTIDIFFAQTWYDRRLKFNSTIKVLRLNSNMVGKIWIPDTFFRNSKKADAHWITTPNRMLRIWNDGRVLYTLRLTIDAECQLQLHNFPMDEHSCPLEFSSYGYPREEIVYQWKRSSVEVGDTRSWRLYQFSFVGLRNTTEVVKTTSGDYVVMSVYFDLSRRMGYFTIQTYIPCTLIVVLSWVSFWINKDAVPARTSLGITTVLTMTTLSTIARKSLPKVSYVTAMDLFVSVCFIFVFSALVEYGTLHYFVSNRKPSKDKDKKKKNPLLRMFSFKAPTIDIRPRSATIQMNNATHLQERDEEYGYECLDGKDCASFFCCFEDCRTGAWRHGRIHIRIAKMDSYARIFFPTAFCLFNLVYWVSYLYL
T1 sequence (P47869 whole entry): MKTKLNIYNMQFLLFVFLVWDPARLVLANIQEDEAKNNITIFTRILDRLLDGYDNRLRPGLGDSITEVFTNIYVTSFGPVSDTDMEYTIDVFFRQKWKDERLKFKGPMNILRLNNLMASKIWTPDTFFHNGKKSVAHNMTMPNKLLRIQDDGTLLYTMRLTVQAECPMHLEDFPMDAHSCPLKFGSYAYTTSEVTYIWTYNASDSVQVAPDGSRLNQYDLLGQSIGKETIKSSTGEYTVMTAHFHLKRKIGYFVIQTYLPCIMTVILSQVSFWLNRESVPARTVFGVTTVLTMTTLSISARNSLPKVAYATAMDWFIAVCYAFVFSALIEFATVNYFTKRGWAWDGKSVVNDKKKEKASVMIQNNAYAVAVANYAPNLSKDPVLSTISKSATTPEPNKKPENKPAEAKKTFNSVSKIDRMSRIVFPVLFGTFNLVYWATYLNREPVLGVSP

SMILES: CCNC(=O)/C=C(C)/C=C/C=C(C)/C=C/c1c(C)cc(OC)c(C)c1C [MOTRETINIDE]
AC50 [1]: > 30 µM

SMILES: S=P(N1CC1)(N1CC1)N1CC1 [THIOTEPA]
AC50 [2]: > 30 µM

SMILES: Cc1ccccc1C(=O)Nc1ccc(C(=O)N2CCCC(O)c3cc(Cl)ccc32)c(C)c1 (configuration not stated) [TOLVAPTAN]
AC50 [1]: > 30 µM

AC50 (Mu-type opioid receptor): > 30 µM
SMILES: CCC(=O)O[C@]1(C(=O)CCl)[C@@H](C)C[C@H]2[C@@H]3CCC4=CC(=O)C=C[C@]4(C)[C@@]3(F)[C@@H](O)C[C@@]21C [CLOBETASOL PROPIONATE]

SMILES: CCOc1cc([C@@H](CS(C)(=O)=O)N2C(=O)c3cccc(NC(C)=O)c3C2=O)ccc1OC
AC50 [3]: > 30 µM
AC50 [2]: > 30 µM
AC50 [4]: > 30 µM

AC50 [3]: > 30 µM
AC50 [2]: > 30 µM
AC50 [4]: > 30 µM
AC50 (Mu-type opioid receptor): > 30 µM
SMILES: CC1(C)S[C@@H]2[C@H](NC(=O)C(C(=O)O)c3ccccc3)C(=O)N2[C@H]1C(=O)O (some centres not stated) [CARBENICILLIN]

AC50 (Estrogen receptor): > 10 µM
AC50 (Cannabinoid receptor 1): > 10 µM
SMILES: CCCc1cc(=O)[nH]c(=S)[nH]1 [PROPYLTHIOURACIL]

AC50 [3]: > 30 µM
AC50 (Estrogen receptor): > 30 µM
AC50 [4]: > 30 µM
AC50 (Mu-type opioid receptor): > 30 µM
SMILES: Cn1cc(C(=O)[C@@H]2CCc3nc[nH]c3C2)c2ccccc21 [RAMOSETRON]

SMILES: O=C(O)c1ccccc1 [BENZOIC ACID]
AC50 [1]: > 30 µM

SMILES: CC1(C)O[C@@H]2C[C@H]3[C@@H]4C[C@H](F)C5=CC(=O)C=C[C@]5(C)[C@@]4(F)[C@@H](O)C[C@]3(C)[C@]2(C(=O)CO)O1 [FLUOCINOLONE ACETONIDE]
AC50 [1]: > 30 µM

SMILES: CN(C)c1ccc(O)c2c1C[C@H]1C[C@H]3[C@H](N(C)C)C(O)=C(C(N)=O)C(=O)[C@@]3(O)C(O)=C1C2=O [MINOCYCLINE]
AC50 [1]: > 30 µM

SMILES: Cc1ccc(C(=O)c2ccc(CC(=O)O)n2C)cc1 [TOLMETIN]
AC50 [1]: > 30 µM

AC50 [3]: > 30 µM
AC50 (Cannabinoid receptor 1): > 10 µM
AC50 (Histamine H2 receptor): > 10 µM
AC50 (B1 bradykinin receptor): > 10 µM
SMILES: Cc1nc(Nc2ncc(C(=O)Nc3c(C)cccc3Cl)s2)cc(N2CCN(CCO)CC2)n1 [DASATINIB]

SMILES: Cc1ccc(C)c(OCCCC(C)(C)C(=O)O)c1 [GEMFIBROZIL]
AC50 (Estrogen receptor): > 30 µM
AC50 [5]: > 30 µM
AC50 (Cannabinoid receptor 1): > 10 µM
AC50 (Histamine H2 receptor): > 10 µM
AC50 (B1 bradykinin receptor): > 30 µM

AC50 (Estrogen receptor): > 30 µM
AC50 [5]: > 30 µM
AC50 (Cannabinoid receptor 1): > 10 µM
AC50 (B1 bradykinin receptor): > 30 µM
SMILES: CCCNC(=O)NS(=O)(=O)c1ccc(Cl)cc1 [CHLORPROPAMIDE]

SMILES: N=C(N)N/N=C/c1c(Cl)cccc1Cl [GUANABENZ]
AC50 [1]: > 30 µM

AC50 (Estrogen receptor): > 30 µM
AC50 (Cannabinoid receptor 1): > 10 µM
SMILES: COc1cc(C(=O)NS(=O)(=O)c2ccccc2C)ccc1Cc1cn(C)c2ccc(NC(=O)OC3CCCC3)cc12 [ZAFIRLUKAST]

AC50 [3]: > 30 µM
AC50 [2]: > 30 µM
AC50 [4]: 15 µM
AC50 (Mu-type opioid receptor): 1.4 µM
SMILES: CN1Cc2c(N)cccc2C(c2ccccc2)C1 (configuration not stated) [NOMIFENSINE]

AC50 [3]: > 30 µM
AC50 (Estrogen receptor): > 30 µM
AC50 (Cannabinoid receptor 1): > 30 µM
AC50 [4]: > 30 µM
AC50 (Mu-type opioid receptor): > 30 µM
SMILES: CC=CC1=C(C(=O)O)N2C(=O)[C@@H](NC(=O)[C@H](N)c3ccc(O)cc3)[C@H]2SC1 [CEFPROZIL]

SMILES: CCC1=C[C@@H]2CN(C1)Cc1c([nH]c3ccccc13)[C@@](C(=O)OC)(c1cc3c(cc1OC)N(C)[C@H]1[C@@](O)(C(=O)OC)[C@H](OC(C)=O)[C@]4(CC)C=CCN5CC[C@]31[C@@H]54)C2 [VINORELBINE]
AC50 [1]: > 30 µM

AC50 [3]: > 30 µM
AC50 (Estrogen receptor): > 30 µM
AC50 [4]: > 30 µM
AC50 (Mu-type opioid receptor): > 30 µM
SMILES: CC(=O)Nc1ccc(CC(=O)O)cc1 [ACTARIT]

SMILES: COc1ccc2[nH]c([S+]([O-])Cc3ncc(C)c(OC)c3C)nc2c1 (configuration not stated) [OMEPRAZOLE]
AC50 [1]: > 30 µM

Reference: ChEMBL document CHEMBL5291721, “A preclinical secondary pharmacology resource illuminates target-adverse drug reaction associations of marketed drugs” (Nat Commun, 2023)
